# According to US20250154525A1, “PLANT VIRUS MOVEMENT PROTEINS AND METHODS OF USING SAME” (Molecular Transfer, Inc., priority 2016, published 2025):
# What was measured:
# [1] = system: HeLa Cells; test: GFP plasmid transfection with DOTMA/DOPE plus surface ligand peptide, fluorescent plate reader (Example 1); assay type: cell-based; conditions: DOTMA/DOPE + peptide linked to R12 or K16; EF1Alpha eGFP plasmid; 42 hours
# [2] = system: HuVec Cells; test: as above; assay type: cell-based; conditions: DOTMA/DOPE + peptide linked to R12 or K16; EF1Alpha eGFP plasmid; 42 hours
# Summary of the method: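 HuVEC cells in 96 well plates at 70% confluence were transfected with EF1Alpha eGFP plasmid using a 1:1 molar DOTMA/DOPE lipid mixed with a surface ligand peptide carrying a covalently attached nucleic acid binding moiety. Complexes formed for 10 minutes, 0.01 mL went to each well, cells were incubated 42 hours at 37° C., and fluorescence was read on a plate reader.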
# [3] = system: NL-1 iPS Cells; test: as above; assay type: cell-based; conditions: DOTMA/DOPE + peptide linked to R12 or K16; EF1Alpha eGFP plasmid; 42 hours
# [4] = system: Jurkat Cells; test: as above; assay type: cell-based; conditions: DOTMA/DOPE + peptide linked to R12 or K16; EF1Alpha eGFP plasmid; 42 hours
# Summary of the method: (§1)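 DOTMA/DOPE (1:1 molar) plus peptide bearing a poly-Arg or poly-Lys tag was complexed 10 min with EF1alpha eGFP plasmid in OptiMEM, then added to 70%-confluent cells (0.01 mL fibroblasts; 0.02 mL C2C12, Jurkat). After 42 h at 37 °C, GFP was read by plate reader and compared with DOTMA without ligand.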
# [5] = system: Human Fibroblast Cells; test: as above; assay type: cell-based; conditions: DOTMA/DOPE + peptide linked to R12 or K16; EF1Alpha eGFP plasmid; 42 hours
# Summary of the method: as §1
# [6] = system: some examined cell types; test: Summary of Example 1: transfection expression and % cells transfected over the no peptide control; assay type: cell-based; conditions: on some examined cell types
# Summary of the method: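 Cells at 70% confluence received DNA complexes of EF1Alpha eGFP plasmid with DOTMA/DOPE (1:1) plus oligo-Arg- or oligo-Lys-tagged peptide ligands, formed 10 min at room temperature. After 42 h at 37 °C, 5% CO2, GFP read by plate reader and % transfected cells judged microscopically, relative to lipid without peptide.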
# [7] = system: HeLa Cells; test: GFP transfection with DOTMA/SEQ ID NO: 72 (fusogenic peptide)/peptide compared with Lipofectamine 2000; assay type: cell-based
# Summary of the method: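 DOTMA/DOPE (1:1 molar) lipid mixed with polyarginine- or polylysine-tagged cell-surface-ligand peptide, complexed 10 min with EF1alpha eGFP plasmid at 10 μg/mL in OptiMEM, fusogenic peptide at 0.1 mg/mL final; HeLa cells ~70% confluent given 0.01 mL complex. GFP read by fluorescence plate reader and microscopy (% cells transfected) after 42 h at 37° C; Lipofectamine 2000 as comparator.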
# [8] = system: C2C12 Cells; test: GFP plasmid transfection with DOTMA/DOPE plus surface ligand peptide, fluorescent plate reader (Example 1); assay type: cell-based, mouse; conditions: DOTMA/DOPE + peptide linked to R12 or K16; EF1Alpha eGFP plasmid; 42 hours
# Summary of the method: as §1
# [9] = 0.1 μL of DOTMA/SEQ ID NO: 72/Peptide in well of a 96 well plate
# [10] = 0.2 μL of DOTMA/SEQ ID NO: 72/Peptide in well of a 96 well plate
# [11] = 0.3 μL of DOTMA/SEQ ID NO: 72/Peptide in well of a 96 well plate
# [12] = 0.4 μL of DOTMA/SEQ ID NO: 72/Peptide in well of a 96 well plate
Substance,Relative Fluorescence of Transfection of HeLa Cells (RF) [1],Relative Fluorescence of Transfection of HuVec Cells (RF) [2],Relative Fluorescence of Transfection of NL-1 iPS Cells (RF) [3],Relative Fluorescence of Transfection of Jurkat Cells (RF) [4],Relative Fluorescence of Transfection of Human Fibroblast Cells (RF) [5],transfection expression and % cells transfected over the no peptide control [6],"Relative Fluorescence DOTMA/SEQ ID NO: 72/Peptide, HeLa Cells (RF) [7, 9]","Relative Fluorescence DOTMA/SEQ ID NO: 72/Peptide, HeLa Cells (RF) [7, 10]","Relative Fluorescence DOTMA/SEQ ID NO: 72/Peptide, HeLa Cells (RF) [7, 11]","Relative Fluorescence DOTMA/SEQ ID NO: 72/Peptide, HeLa Cells (RF) [7, 12]",Relative Fluorescence of Transfection of C2C12 Cells (RF) [8]
351 (LNRQELFPFG) [compound 351],12279,15379,24646,9730,8061,increased transfection expression and the % cells transfected,7678,11499,10575,8791,3530
336 (GEFYFDLRLKGDK) [compound 336],25262,5366,14875,4813,10449,increased transfection expression and the % cells transfected,14442,16702,13434,11334,9647
219 (RKRLQVQLSIRT) [compound 219],13721,6237,5770,10762,7389,increased transfection expression and the % cells transfected,12135,13841,13531,11712,1346
360 (GDLGRPGRKGRPGPP) [compound 360],8516,24042,27572,16607,5347,increased transfection expression and the % cells transfected,9946,11168,10381,8995,2090
379 (TAGSCLRKF) [compound 379],27424,14573,6894,7711,8520,increased transfection expression and the % cells transfected,50018,47049,39036,26448,3189
375 (LAGSCLPVFSTL) [compound 375],41076,5542,5196,4272,7305,increased transfection expression and the % cells transfected,22457,30891,34887,29024,5633
365 (ISRCQVCMKKRH) [compound 365],36093,14764,6364,5298,5219,increased transfection expression and the % cells transfected,26620,43775,36054,21540,5390
369 (TAIPSCPEGTVPLYS) [compound 369],14444,6536,13124,11085,7590,increased transfection expression and the % cells transfected,8737,16706,14880,12645,3322
343 (LFSHAVSSNG) [compound 343],5910,16239,21726,23499,4590,increased transfection expression and the % cells transfected,6961,8626,8577,8160,3218
342 (TAGSCLRKFSTM) [compound 342],33666,12804,11493,12825,9525,increased transfection expression and the % cells transfected,41299,36040,28841,18351,9496
